# Reference: PubChem BioAssay (NCI)
#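 Protocol summary: plate cells (96-well), add compound at 5 concentrations, incubate 48 h, interpolate endpoints linearly. At the GI50, growth is halved. At the TGI there is no net growth.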
# Columns and labels:
# Test in all cases: inhibition of tumour cell growth, NCI panel, 48 h
# SF-539 CNS = system: SF-539 CNS
# IGROV1 ovarian = system: IGROV1 ovarian
# UO-31 renal = system: UO-31 renal
# SR leukemia = system: SR leukemia
# HL-60(TB) leukemia = system: HL-60(TB) leukemia
# BT-549 breast = system: BT-549 breast
# ACHN renal = system: ACHN renal
# T-47D breast = system: T-47D breast
# U251 CNS = system: U251 CNS
# MALME-3M melanoma = system: MALME-3M melanoma
# HCT-116 colon = system: HCT-116 colon
# HOP-62 NSCLC = system: HOP-62 NSCLC
# TK-10 renal = system: TK-10 renal
# NCI-H226 lung = system: NCI-H226 lung
# SNB-19 CNS = system: SNB-19 CNS
# NCI-H460 lung = system: NCI-H460 lung
# A549 NSCLC = system: A549 NSCLC
# CAKI-1 renal = system: CAKI-1 renal
# NCI-H23 lung = system: NCI-H23 lung
# SK-MEL-5 melanoma = system: SK-MEL-5 melanoma
# 786-0 renal = system: 786-0 renal
# MDA-MB-468 breast = system: MDA-MB-468 breast
# UACC-62 melanoma = system: UACC-62 melanoma
# HCT-15 colon = system: HCT-15 colon
# OVCAR-8 ovarian = system: OVCAR-8 ovarian
# OVCAR-3 ovarian = system: OVCAR-3 ovarian
# SNB-75 CNS = system: SNB-75 CNS
# RXF 393 renal = system: RXF 393 renal
# SK-OV-3 ovarian = system: SK-OV-3 ovarian
# SN12C renal = system: SN12C renal
# A498 renal = system: A498 renal
# M14 melanoma = system: M14 melanoma
# OVCAR-4 ovarian = system: OVCAR-4 ovarian
# HT29 colon = system: HT29 colon
# PC-3 prostate = system: PC-3 prostate
# KM12 colon = system: KM12 colon
# SK-MEL-2 melanoma = system: SK-MEL-2 melanoma
# MDA-MB-435 = system: MDA-MB-435
# COLO 205 colon = system: COLO 205 colon
# EKVX NSCLC = system: EKVX NSCLC
# OVCAR-5 ovarian = system: OVCAR-5 ovarian
# SF-295 CNS = system: SF-295 CNS
# MOLT-4 leukemia = system: MOLT-4 leukemia
# NCI/ADR-RES ovarian = system: NCI/ADR-RES ovarian
# MCF7 breast = system: MCF7 breast
# SK-MEL-28 melanoma = system: SK-MEL-28 melanoma
# HOP-92 NSCLC = system: HOP-92 NSCLC
# LOX IMVI melanoma = system: LOX IMVI melanoma
# NCI-H522 lung = system: NCI-H522 lung
# K-562 leukemia = system: K-562 leukemia
# HCC-2998 colon = system: HCC-2998 colon
# SF-268 CNS = system: SF-268 CNS
# RPMI-8226 leukemia = system: RPMI-8226 leukemia
# SW-620 colon = system: SW-620 colon
# CCRF-CEM leukemia = system: CCRF-CEM leukemia
# HS 578T breast = system: HS 578T breast
# MDA-MB-231 breast = system: MDA-MB-231 breast
# DU-145 prostate = system: DU-145 prostate
smiles,measurement,setting,value
O=C(Nc1cccc(-n2cnc3cc(-c4ccc(O)cc4)ccc32)c1)C1CC1,GI50,SF-539 CNS,332 nM
same,TGI,SF-539 CNS,2030 nM
same,GI50,IGROV1 ovarian,591 nM
same,TGI,IGROV1 ovarian,26900 nM
same,GI50,UO-31 renal,599 nM
same,TGI,UO-31 renal,19300 nM
same,GI50,SR leukemia,175 nM
same,TGI,SR leukemia,59600 nM
same,GI50,HL-60(TB) leukemia,237 nM
same,TGI,HL-60(TB) leukemia,645 nM
same,GI50,BT-549 breast,396 nM
same,TGI,BT-549 breast,11800 nM
same,GI50,ACHN renal,593 nM
same,TGI,ACHN renal,35200 nM
same,GI50,T-47D breast,521 nM
same,TGI,T-47D breast,19400 nM
same,GI50,U251 CNS,514 nM
same,TGI,U251 CNS,> 100000 nM
same,GI50,MALME-3M melanoma,555 nM
same,TGI,MALME-3M melanoma,28200 nM
same,GI50,HCT-116 colon,512 nM
same,TGI,HCT-116 colon,17700 nM
same,GI50,HOP-62 NSCLC,625 nM
same,TGI,HOP-62 NSCLC,> 69200 nM
same,GI50,TK-10 renal,11300 nM
same,TGI,TK-10 renal,63400 nM
same,GI50,NCI-H226 lung,2880 nM
same,TGI,NCI-H226 lung,48100 nM
same,GI50,SNB-19 CNS,811 nM
same,TGI,SNB-19 CNS,72900 nM
same,GI50,NCI-H460 lung,469 nM
same,TGI,NCI-H460 lung,> 43700 nM
same,GI50,A549 NSCLC,895 nM
same,TGI,A549 NSCLC,> 100000 nM
same,GI50,CAKI-1 renal,503 nM
same,TGI,CAKI-1 renal,66500 nM
same,GI50,NCI-H23 lung,1120 nM
same,TGI,NCI-H23 lung,19800 nM
same,GI50,SK-MEL-5 melanoma,350 nM
same,TGI,SK-MEL-5 melanoma,14800 nM
same,GI50,786-0 renal,683 nM
same,TGI,786-0 renal,45600 nM
same,GI50,MDA-MB-468 breast,313 nM
same,TGI,MDA-MB-468 breast,8820 nM
same,GI50,UACC-62 melanoma,354 nM
same,TGI,UACC-62 melanoma,19300 nM
same,GI50,HCT-15 colon,308 nM
same,TGI,HCT-15 colon,15700 nM
same,GI50,OVCAR-8 ovarian,823 nM
same,TGI,OVCAR-8 ovarian,> 58800 nM
same,GI50,OVCAR-3 ovarian,320 nM
same,TGI,OVCAR-3 ovarian,3760 nM
same,GI50,SNB-75 CNS,246 nM
same,TGI,SNB-75 CNS,3420 nM
same,GI50,RXF 393 renal,411 nM
same,TGI,RXF 393 renal,6600 nM
same,GI50,SK-OV-3 ovarian,820 nM
same,TGI,SK-OV-3 ovarian,33700 nM
same,GI50,SN12C renal,550 nM
same,TGI,SN12C renal,35600 nM
same,GI50,A498 renal,19500 nM
same,TGI,A498 renal,84900 nM
same,GI50,M14 melanoma,344 nM
same,TGI,M14 melanoma,28300 nM
same,GI50,OVCAR-4 ovarian,5940 nM
same,TGI,OVCAR-4 ovarian,73900 nM
same,GI50,HT29 colon,340 nM
same,TGI,HT29 colon,> 40800 nM
same,GI50,PC-3 prostate,546 nM
same,TGI,PC-3 prostate,53200 nM
same,GI50,KM12 colon,351 nM
same,TGI,KM12 colon,13900 nM
same,GI50,SK-MEL-2 melanoma,417 nM
same,TGI,SK-MEL-2 melanoma,23600 nM
same,GI50,MDA-MB-435,108 nM
same,TGI,MDA-MB-435,441 nM
same,GI50,COLO 205 colon,489 nM
same,TGI,COLO 205 colon,18600 nM
same,GI50,EKVX NSCLC,782 nM
same,TGI,EKVX NSCLC,36100 nM
same,GI50,OVCAR-5 ovarian,1810 nM
same,TGI,OVCAR-5 ovarian,69500 nM
same,GI50,SF-295 CNS,372 nM
same,TGI,SF-295 CNS,7670 nM
same,GI50,MOLT-4 leukemia,435 nM
same,TGI,MOLT-4 leukemia,6190 nM
same,GI50,NCI/ADR-RES ovarian,539 nM
same,TGI,NCI/ADR-RES ovarian,5880 nM
same,GI50,MCF7 breast,358 nM
same,TGI,MCF7 breast,20200 nM
same,GI50,SK-MEL-28 melanoma,12600 nM
same,TGI,SK-MEL-28 melanoma,48500 nM
same,GI50,HOP-92 NSCLC,14600 nM
same,TGI,HOP-92 NSCLC,52100 nM
same,GI50,LOX IMVI melanoma,478 nM
same,TGI,LOX IMVI melanoma,22100 nM
same,GI50,NCI-H522 lung,225 nM
same,TGI,NCI-H522 lung,1140 nM
same,GI50,K-562 leukemia,284 nM
same,TGI,K-562 leukemia,> 36600 nM
same,GI50,HCC-2998 colon,1180 nM
same,TGI,HCC-2998 colon,24400 nM
same,GI50,SF-268 CNS,935 nM
same,TGI,SF-268 CNS,71000 nM
same,GI50,RPMI-8226 leukemia,615 nM
same,TGI,RPMI-8226 leukemia,13600 nM
same,GI50,SW-620 colon,421 nM
same,TGI,SW-620 colon,> 91500 nM
same,GI50,CCRF-CEM leukemia,389 nM
same,TGI,CCRF-CEM leukemia,10300 nM
same,GI50,HS 578T breast,388 nM
same,TGI,HS 578T breast,> 45400 nM
same,GI50,MDA-MB-231 breast,700 nM
same,TGI,MDA-MB-231 breast,42900 nM
same,GI50,DU-145 prostate,1460 nM
same,TGI,DU-145 prostate,28400 nM
